Experimental findings from patent US9624244B2, “Benzo [B] isoxazoloazepine bromodomain inhibitors and uses thereof” (Constellation Pharmaceuticals, Inc., priority 2012, dated 2017) are described below.

Assay [1] deals with T1, BRD4(BD1) (Homo sapiens, UniProt O60885).
T1 construct: His; made in house
As to the kind of experiment: BRD4 AlphaLisa binding assay. The note with it: BRD4(BD1) 30 nM, biotinylated H4-tetraacetyl peptide 200 nM, read-out: AS IC50. How it is done:
IC50 Measurements for Inhibitors Using BRD4 AlphaLisa Binding Assay
Specifically, in a 384 well ProxiPlate BRD4(BD1) (30 nM final) was combined with peptide (200 nM final) in 40 mM HEPES (pH 7.0), 40 mM NaCl, 1 mM DTT, 0.01% (w/v) BSA, and 0.008% (w/v) Brij-35 either in the presence of DMSO (final 1.2% DMSO) or compound dilution series in DMSO. After 20 minute incubation at room temperature Alpha streptavidin donor beads and AlphaLisa anti-Flag acceptor beads were added to a final concentration of 10 ug/mL each. After three hours equilibration plates were read on an Envision instrument and IC50s calculated using a four parameter non-linear curve fit.
A general note: Bead proximity is the source of the signal in Alpha formats.

Assay [2] has as its system MYC mRNA, MV4:11 (AML) or Raji (Burkitt's lymphoma) cells. As to the kind of experiment: cMyc RNA quantification assay (QuantiGene). In kind it is cell-based. The note with it: MV4:11 or Raji cells, 4 h, MYC mRNA normalized to DMSO. As for the experimental part:
cMyc RNA Quantification Assay (QuantiGene® Assay):
MV4:11 (AML) or Raji (Burkitt's lymphoma) cells were seeded in a 96-well plate and incubated in the presence of various concentrations of compounds for 4 h. Relative mRNA levels were quantitated by using QuantiGene 2.0 assay (Affymetrix) according to the manufacturer's recommendation. Signals were detected by using an Envision plate reader (Perkin-Elmer). Biological duplicates were averaged and normalized to vehicle (DMSO) control to calculate percent MYC mRNA levels.

Assay [3] deals with IL-6 secretion, THP-1 cells. As to the kind of experiment: Cell-based IL-6 quantification assay (ELISA, Mesoscale) in LPS-stimulated THP-1 cells. The note with it: Homo sapiens, LPS 4 μg/mL, 16 h, ELISA value/CellTiter-Glo ratio. How it is done: Cell-Based IL-6 Quantification Assay (ELISA, Mesoscale Assay):
100,000 THP-1 cells were seeded in RPMI1640-10% FBS in 96-well plates. LPS (E. Coli Invitrogen) in RPMI-10% FBS at a final concentration of 4 μg/mL was added to the wells and the cells are then incubated in the presence of various concentrations of compounds for 16 h. Plates are spun ([…], 5 min), an aliquot of 25 uL supernatant is transferred in to an ELISA plate (Mesoscale technology, MSD) and the detection of IL-6 is performed using manufacturer's instructions. The amount of cells in each well is assessed using CellTiter-Glo® (Promega). The ratio of ELISA value/CellTiter-Glo value is used to calculate the percent of inhibition of IL-6 secretion.

As a reminder, the IC50 is the midpoint of a concentration-inhibition curve. One may read the EC50 as the midpoint of the concentration-response curve. The low end stands for an effect from little substance, the high end for a need for much substance. In the case of `Cc1noc2c1-c1cc(C(N)=O)ccc1N(c1ccc(C#N)cc1)CC2` [Compound 126, 6-(4-cyanophenyl)-1-methyl-5,6-dihydro-4H-benzo[b]isoxazolo[4,5-d]azepine-9-carboxamide], the IC50 was determined as 1410 nM in assay [1] and 5280 nM in assay [3]. In addition, in assay [2], the EC50 came out at 1790 nM.
The matching figures for `Cc1noc2c1-c1ccc(-c3cnn(C)c3)cc1N(c1ccc(C(N)=O)cc1)CC2` [Compound 119]: 150 nM, 610 nM and 460 nM.
For `Cc1ccc2c(c1)-c1c(C)noc1CCN2c1ccc(C#N)cc1` [Compound 106], in that order: 230 nM, greater than 1000 nM and 1980 nM.
Take `Cc1noc2c1-c1ccc(-c3cnn(C)c3)cc1N(c1ccc(C#N)cc1)CC2CC(N)=O` (stereo not drawn) [Compound 137, 2-(6-(4-cyanophenyl)-1-methyl-8-(1-methyl-1H-pyrazol-4-yl)-5,6-dihydro-4H-benzo[b]isoxazolo[4,5-d]azepin-4-yl)acetamide]: the IC50 was 420 nM in assay [1] and greater than 1000 nM in assay [3]. A half-maximal effect in assay [2] (EC50) was put at 1840 nM.
The matching figures for `Cc1noc2c1-c1ccc(-c3ccc(C(=O)O)cc3)cc1N(c1ccc(C#N)cc1)CC2` [Compound 115]: 30 nM, 530 nM and 2120 nM.
For `Cc1noc2c1-c1ccc(-c3cnn(C)c3)cc1N(c1ccc(C#N)cc1)CC2CCO` (stereo not drawn) [Compound 138, 4-(4-(2-hydroxyethyl)-1-methyl-8-(1-methyl-1H-pyrazol-4-yl)-4H-benzo[b]isoxazolo[4,5-d]azepin-6(5H)-yl)benzonitrile], in that order: 80 nM, 340 nM and 310 nM.
The matching figures for `Cc1noc2c1-c1ccc(-c3cnn(C)c3)c(C)c1N(c1ccc(C#N)cc1)CC2C` (stereo not drawn) [Compound 118]: 160 nM, 520 nM and 830 nM.
Turning to `Cc1cccc2c1N(Cc1ccccc1)CCc1onc(C)c1-2` [Compound 131, 6-benzyl-1,7-dimethyl-5,6-dihydro-4H-benzo[b]isoxazolo[4,5-d]azepine], the results for the IC50 in assay [1] and in assay [3] were 20700 nM and 8500 nM, respectively. The same compound came in with an EC50 in assay [2] greater than 4000 nM.
For the compound `Cc1noc2c1-c1ccc(-c3cncnc3)cc1N(c1ccc(C#N)cc1)CC2` [Compound 109], the IC50 is 350 nM in assay [1] and greater than 1000 nM in assay [3]. In addition, the concentration for a half-maximal effect (EC50) in assay [2] was determined as 2040 nM.
The matching figures for `Cc1noc(C)c1-c1ccc2c(c1)N(c1ccc(C#N)cc1)CCc1onc(C)c1-2` [Compound 111]: 300 nM, greater than 1000 nM and 3330 nM.
The matching figures for `Cc1noc2c1-c1ccc(-c3cnn(C)c3)cc1N(c1ccc(C#N)cc1)C(=O)C2` [Compound 135, 4-(1-methyl-8-(1-methyl-1H-pyrazol-4-yl)-5-oxo-4H-benzo[b]isoxazolo[4,5-d]azepin-6(5H)-yl)benzonitrile]: 490 nM, 650 nM and 1320 nM.
With `Cc1noc2c1-c1ccc(-c3cnn(C)c3)cc1N(c1ccc(C#N)cc1)CC2` [Compound 110], the concentration for half-maximal inhibition (IC50) in assay [1] is 80 nM; in assay [3], greater than 1000 nM. This compound registered an EC50 in assay [2] of 780 nM.
For `Cc1noc2c1-c1ccc(-c3ccc(=O)n(C)c3)cc1N(c1ccc(C#N)cc1)CC2C` (stereo not drawn) [Compound 125], in that order: 40 nM, 90 nM and 170 nM.
For `Cc1noc2c1-c1ccc(-c3ccc(N)nc3)cc1N(c1ccc(C#N)cc1)CC2` [Compound 116], in that order: 60 nM, 380 nM and 550 nM.
For `Cc1noc2c1-c1cc(-c3cnn(C)c3)ccc1N(c1ccc(C#N)cc1)CC2` [Compound 114], in that order: 3800 nM, greater than 15000 nM and greater than 4000 nM.
Turning to `CCC1CN(c2ccc(C#N)cc2)c2cc(-c3ccc(=O)n(C)c3)ccc2-c2c(C)noc21` (stereo not drawn) [Compound 122], the IC50 is 40 nM in assay [1] and 120 nM in assay [3]. This compound also displayed an EC50 in assay [2] of 240 nM.
The matching figures for `Cc1noc2c1-c1ccc(-c3ccc(N)nc3)cc1N(c1ccc(C#N)cc1)CC2C` (stereo not drawn) [Compound 123]: 40 nM, 80 nM and 200 nM.
For `Cc1noc2c1-c1ccc(-c3cnn(CC(N)=O)c3)cc1N(c1ccc(C#N)cc1)CC2C` (stereo not drawn) [Compound 134, 2-(4-(6-(4-cyanophenyl)-1,4-dimethyl-5,6-dihydro-4H-benzo[b]isoxazolo[4,5-d]azepin-8-yl)-1H-pyrazol-1-yl)acetamide], the IC50 in assay [1] came out at 30 nM; in assay [3], 70 nM. In addition, in assay [2], the EC50 came out at 120 nM.
For `Cc1noc2c1-c1ccccc1N(Cc1ccccc1)CC2` [Compound 130, 6-benzyl-1-methyl-5,6-dihydro-4H-benzo[b]isoxazolo[4,5-d]azepine], in that order: 12900 nM, 5900 nM and greater than 4000 nM.
For `Cc1noc2c1-c1ccc(-c3cnn(C)c3)cc1N(c1ccc(C#N)cc1)CC2C` (stereo not drawn) [Compound 124], in that order: 40 nM, 120 nM and 260 nM.
The matching figures for `Cc1noc2c1-c1ccc(-c3ccc(N)nc3)cc1N(c1ccc(C#N)cc1)CC2CC(=O)N(C)C` (stereo not drawn) [Compound 139, 2-(8-(6-aminopyridin-3-yl)-6-(4-cyanophenyl)-1-methyl-5,6-dihydro-4H-benzo[b]isoxazolo[4,5-d]azepin-4-yl)-N,N-dimethylacetamide]: 1000 nM, greater than 1000 nM and greater than 4000 nM.
`Cc1onc2c1-c1ccccc1N(c1ccc(Cl)cc1)CC2` [Compound 136, 6-(4-chlorophenyl)-1-methyl-5,6-dihydro-4H-benzo[b]isoxazolo[4,3-d]azepine]: the IC50 in assay [1] worked out at 4770 nM; in assay [3], 7700 nM. Further, the EC50 in assay [2] is greater than 4000 nM.
For `Cc1noc2c1-c1ccc(Cl)cc1N(S(=O)(=O)c1ccccc1)CC2` [Compound 133, 8-chloro-1-methyl-6-(phenylsulfonyl)-5,6-dihydro-4H-benzo[b]isoxazolo[4,5-d]azepine], in that order: greater than 4000 nM, greater than 1000 nM and greater than 4000 nM.
`Cc1noc2c1-c1ccc(-c3ccc(=O)n(C)c3)cc1N(c1ccc(C#N)cc1)CC2` [Compound 117]: the IC50 is 40 nM in assay [1] and 150 nM in assay [3]. In assay [2], the EC50 is 610 nM.
For `CCC1CN(c2ccc(C#N)cc2)c2cc(-c3cnn(C)c3)ccc2-c2c(C)noc21` (stereo not drawn) [Compound 121], in that order: 80 nM, 150 nM and 460 nM.
For `Cc1noc2c1-c1ccc(-c3cnn(C)c3)cc1N(c1ccc(S(C)(=O)=O)cc1)CC2` [Compound 120], in that order: 240 nM, greater than 1000 nM and 1460 nM.
As for `Cc1noc(C)c1-c1ccc2c(c1)-c1c(C)noc1CCN2c1ccc(C#N)cc1` [Compound 113], the IC50 came to 8900 nM in assay [1] and 7400 nM in assay [3]. The concentration giving a half-maximal response (EC50) in assay [2] is greater than 4000 nM.
